# Measured values from US20260000642A1 (Tay Therapeutics Limited, priority 2022, published 2026).
# “And” between values parts separate entries of the source, which are not always exact repeats. Identical values can stand only once.
# System: collagen-induced arthritis in Lewis rats
# Test: Collagen-induced arthritis (CIA) model in rats: body weight, paw volume, clinical scores, clinical observations
# Conditions: for Animal body weight percent change / Animal body weight: Group 5 (CIA + Example 101 3 mg/kg)
# [1] = Day 1, individual animals, 3 mg/kg
# [2] = Day 3, individual animals, 3 mg/kg
# [3] = Day 7, individual animals, 3 mg/kg
smiles,measurement,setting,value
"CNC(=O)c1[nH]c(C(=O)NC2CCC2)cc1O[C@@H](C)c1ccccc1 [Example 101, N^5-cyclobutyl-N^2-methyl-3-(1-phenylethoxy)-1H-pyrrole-2,5-dicarboxamide]",Average animal body weight percent change,"Day 12, CIA + 30 mg/kg",0.66%
same,Mean animal body weight,"Day 12, CIA + 30 mg/kg",163 g
same,Average animal body weight percent change,"Day 13, CIA + 3 mg/kg",7.74%
same,Mean animal body weight,"Day 13, CIA + 3 mg/kg",178 g
same,Average animal body weight percent change,"Day 13, CIA + 10 mg/kg",3.92%
same,Mean animal body weight,"Day 13, CIA + 10 mg/kg",169 g
same,Average animal body weight percent change,"Day 13, CIA + 30 mg/kg",0.18%
same,Mean animal body weight,"Day 13, CIA + 30 mg/kg",162 g
same,Average animal body weight percent change,"Day 14, CIA + 3 mg/kg",7.08%
same,Mean animal body weight,"Day 14, CIA + 3 mg/kg",177 g
same,Average animal body weight percent change,"Day 14, CIA + 10 mg/kg",4.05%
same,Mean animal body weight,"Day 14, CIA + 10 mg/kg",169 g
same,Average animal body weight percent change,"Day 14, CIA + 30 mg/kg",1.42%
same,Mean animal body weight,"Day 14, CIA + 30 mg/kg",164 g
same,Average animal body weight percent change,"Day 15, CIA + 3 mg/kg",5.15%
same,Mean animal body weight,"Day 15, CIA + 3 mg/kg",173 g
same,Average animal body weight percent change,"Day 15, CIA + 10 mg/kg",3.31%
same,Mean animal body weight,"Day 15, CIA + 10 mg/kg",168 g
same,Average animal body weight percent change,"Day 15, CIA + 30 mg/kg",2.38%
same,Mean animal body weight,"Day 15, CIA + 30 mg/kg",166 g
same,Average animal body weight percent change,"Day 16, CIA + 3 mg/kg",3.90%
same,Mean animal body weight,"Day 16, CIA + 3 mg/kg",171 g
same,Average animal body weight percent change,"Day 16, CIA + 10 mg/kg",2.23%
same,Mean animal body weight,"Day 16, CIA + 10 mg/kg",166 g
same,Average animal body weight percent change,"Day 16, CIA + 30 mg/kg",1.69%
same,Mean animal body weight,"Day 16, CIA + 30 mg/kg",165 g
same,Average animal body weight percent change,"Day 17, CIA + 3 mg/kg",3.37%
same,Mean animal body weight,"Day 17, CIA + 3 mg/kg",170 g
same,Average animal body weight percent change,"Day 17, CIA + 10 mg/kg",2.29%
same,Mean animal body weight,"Day 17, CIA + 10 mg/kg",166 g
same,Average animal body weight percent change,"Day 17, CIA + 30 mg/kg",1.41%
same,Mean animal body weight,"Day 17, CIA + 30 mg/kg",164 g
same,Average animal body weight percent change,"Day 18, CIA + 3 mg/kg",2.36%
same,Mean animal body weight,"Day 18, CIA + 3 mg/kg",169 g
same,Average animal body weight percent change,"Day 18, CIA + 10 mg/kg",1.38%
same,Mean animal body weight,"Day 18, CIA + 10 mg/kg",165 g
same,Average animal body weight percent change,"Day 18, CIA + 30 mg/kg",1.61%
same,Mean animal body weight,"Day 18, CIA + 30 mg/kg",165 g
same,Average animal body weight percent change,"Day 19, CIA + 3 mg/kg",0.91%
same,Mean animal body weight,"Day 19, CIA + 3 mg/kg",166 g
same,Average animal body weight percent change,"Day 19, CIA + 10 mg/kg",0.76%
same,Mean animal body weight,"Day 19, CIA + 10 mg/kg",164 g
same,Average animal body weight percent change,"Day 19, CIA + 30 mg/kg",1.24%
same,Mean animal body weight,"Day 19, CIA + 30 mg/kg",164 g
same,Average animal body weight percent change,"Day 20, CIA + 3 mg/kg",1.13%
same,Mean animal body weight,"Day 20, CIA + 3 mg/kg",167 g
same,Average animal body weight percent change,"Day 20, CIA + 10 mg/kg",1.30%
same,Mean animal body weight,"Day 20, CIA + 10 mg/kg",164 g
same,Average animal body weight percent change,"Day 20, CIA + 30 mg/kg",0.50%
same,Mean animal body weight,"Day 20, CIA + 30 mg/kg",163 g
same,Average animal body weight percent change,"Day 21, CIA + 3 mg/kg",1.73%
same,Mean animal body weight,"Day 21, CIA + 3 mg/kg",168 g
same,Average animal body weight percent change,"Day 21, CIA + 10 mg/kg",0.53%
same,Mean animal body weight,"Day 21, CIA + 10 mg/kg",163 g
same,Average animal body weight percent change,"Day 21, CIA + 30 mg/kg",0.50%
same,Mean animal body weight,"Day 21, CIA + 30 mg/kg",163 g
same,Animal body weight percent change,"Day 0, individual animals",0.00%
same,Animal body weight,[1],170 g
same,Animal body weight percent change,[1],−0.58% and 0.65%
same,Animal body weight percent change,"Day 2, individual animals, 3 mg/kg",0.62% and 0.56% and −1.20%
same,Animal body weight,[2],160 g and 170 g
same,Animal body weight percent change,[2],−0.62% and −1.13% and −0.60%
same,Animal body weight,"Day 4, individual animals, 3 mg/kg",170 g
same,Animal body weight percent change,"Day 5, individual animals, 3 mg/kg",0.00%
same,Animal body weight,"Day 6, individual animals, 3 mg/kg",180 g and 160 g
same,Animal body weight,[3],160 g and 180 g
same,Animal body weight percent change,[3],0.63%
same,Animal body weight,"Day 8, individual animals, 3 mg/kg",160 g
same,Animal body weight,"Day 9, individual animals, 3 mg/kg",170 g
same,Animal body weight percent change,"Day 10, individual animals, 3 mg/kg",9.70%
same,Animal body weight,"Day 11, individual animals, 3 mg/kg",180 g
